Test results taken from PubChem BioAssay (NCI).
Values joined by “and” are separate entries in the source; they are usually repeats but may differ in a detail not shown here. Equal entries are not always repeated.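 Step 1: Grow cells in 96-well plates. Step 2: Expose to compound for 48 hours at 5 concentrations. Step 3: Interpolate endpoints linearly; if unreached, use highest concentration. Here, GI50 denotes the concentration required for 50% inhibition of growth. TGI denotes the concentration required for complete inhibition of growth.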

Key:
Experiment in all cases: inhibition of tumour cell growth, NCI panel, 48 h
HCT-15 colon = system: HCT-15 colon
NCI/ADR-RES ovarian = system: NCI/ADR-RES ovarian
NCI-H460 lung = system: NCI-H460 lung
HOP-92 NSCLC = system: HOP-92 NSCLC
SR leukemia = system: SR leukemia
HCC-2998 colon = system: HCC-2998 colon
SF-539 CNS = system: SF-539 CNS
DU-145 prostate = system: DU-145 prostate
MCF7 breast = system: MCF7 breast
PC-3 prostate = system: PC-3 prostate
U251 CNS = system: U251 CNS
786-0 renal = system: 786-0 renal
COLO 205 colon = system: COLO 205 colon
SN12C renal = system: SN12C renal
SK-MEL-5 melanoma = system: SK-MEL-5 melanoma
SW-620 colon = system: SW-620 colon
MDA-N = system: MDA-N
OVCAR-5 ovarian = system: OVCAR-5 ovarian
SNB-19 CNS = system: SNB-19 CNS
ACHN renal = system: ACHN renal
MDA-MB-435 = system: MDA-MB-435
HCT-116 colon = system: HCT-116 colon
T-47D breast = system: T-47D breast
NCI-H226 lung = system: NCI-H226 lung
SF-268 CNS = system: SF-268 CNS
M14 melanoma = system: M14 melanoma
OVCAR-4 ovarian = system: OVCAR-4 ovarian
RXF 393 renal = system: RXF 393 renal
UACC-257 melanoma = system: UACC-257 melanoma
A549 NSCLC = system: A549 NSCLC
IGROV1 ovarian = system: IGROV1 ovarian
K-562 leukemia = system: K-562 leukemia
MDA-MB-231 breast = system: MDA-MB-231 breast
HS 578T breast = system: HS 578T breast
RPMI-8226 leukemia = system: RPMI-8226 leukemia
EKVX NSCLC = system: EKVX NSCLC
MALME-3M melanoma = system: MALME-3M melanoma
NCI-H23 lung = system: NCI-H23 lung
OVCAR-8 ovarian = system: OVCAR-8 ovarian
SK-MEL-28 melanoma = system: SK-MEL-28 melanoma
HL-60(TB) leukemia = system: HL-60(TB) leukemia
LOX IMVI melanoma = system: LOX IMVI melanoma
CCRF-CEM leukemia = system: CCRF-CEM leukemia
SNB-75 CNS = system: SNB-75 CNS
UO-31 renal = system: UO-31 renal
SF-295 CNS = system: SF-295 CNS
A498 renal = system: A498 renal
TK-10 renal = system: TK-10 renal
HT29 colon = system: HT29 colon
BT-549 breast = system: BT-549 breast
MOLT-4 leukemia = system: MOLT-4 leukemia
KM12 colon = system: KM12 colon
SK-MEL-2 melanoma = system: SK-MEL-2 melanoma
OVCAR-3 ovarian = system: OVCAR-3 ovarian
HOP-62 NSCLC = system: HOP-62 NSCLC
UACC-62 melanoma = system: UACC-62 melanoma
CAKI-1 renal = system: CAKI-1 renal
SK-OV-3 ovarian = system: SK-OV-3 ovarian
NCI-H522 lung = system: NCI-H522 lung

SMILES: CC(C)(C)OC(=O)C1C(=O)NC(=O)CC1C(OCc1ccccc1)C(OCc1ccccc1)C(COCc1ccccc1)OCc1ccccc1 (centres undefined)
- TGI (HCT-15 colon): > 100 µM
- TGI (NCI/ADR-RES ovarian): > 100 µM
- GI50 (NCI-H460 lung): > 100 µM and 37.3 µM
- TGI (NCI-H460 lung): > 100 µM
- GI50 (HOP-92 NSCLC): > 100 µM and 13.3 µM
- TGI (HOP-92 NSCLC): > 100 µM
- GI50 (SR leukemia): > 100 µM and 35.1 µM
- TGI (SR leukemia): > 100 µM
- TGI (HCC-2998 colon): > 100 µM
- TGI (SF-539 CNS): > 100 µM
- TGI (DU-145 prostate): > 100 µM
- GI50 (MCF7 breast): 50 µM and 15.3 µM
- TGI (MCF7 breast): > 100 µM
- TGI (PC-3 prostate): > 100 µM
- GI50 (U251 CNS): 68 µM and 14.4 µM
- TGI (U251 CNS): > 100 µM
- TGI (786-0 renal): > 100 µM
- TGI (COLO 205 colon): > 100 µM
- TGI (SN12C renal): > 100 µM
- GI50 (SK-MEL-5 melanoma): > 100 µM and 28.4 µM
- TGI (SK-MEL-5 melanoma): > 100 µM
- TGI (SW-620 colon): > 100 µM
- TGI (MDA-N): > 100 µM
- TGI (OVCAR-5 ovarian): > 100 µM
- TGI (SNB-19 CNS): > 100 µM
- TGI (ACHN renal): > 100 µM
- GI50 (MDA-MB-435): > 100 µM and 28.9 µM
- TGI (MDA-MB-435): > 100 µM
- GI50 (HCT-116 colon): > 100 µM and 48.1 µM
- TGI (HCT-116 colon): > 100 µM
- TGI (T-47D breast): 14.6 µM
- TGI (NCI-H226 lung): > 100 µM
- TGI (SF-268 CNS): > 100 µM
- TGI (M14 melanoma): > 100 µM
- TGI (OVCAR-4 ovarian): > 100 µM
- GI50 (RXF 393 renal): 33.2 µM and 14.4 µM
- TGI (RXF 393 renal): > 100 µM
- TGI (UACC-257 melanoma): > 100 µM
- GI50 (A549 NSCLC): > 100 µM and 26.9 µM
- TGI (A549 NSCLC): > 100 µM
- TGI (IGROV1 ovarian): > 100 µM
- TGI (K-562 leukemia): > 100 µM
- GI50 (MDA-MB-231 breast): > 100 µM and 40.5 µM
- TGI (MDA-MB-231 breast): > 100 µM
- GI50 (HS 578T breast): > 100 µM and 16.2 µM
- TGI (HS 578T breast): > 100 µM
- GI50 (RPMI-8226 leukemia): 78.7 µM and 23 µM
- TGI (RPMI-8226 leukemia): > 100 µM
- TGI (EKVX NSCLC): > 100 µM
- GI50 (MALME-3M melanoma): > 100 µM and 15.7 µM
- TGI (MALME-3M melanoma): > 100 µM and 73 µM
- TGI (NCI-H23 lung): > 100 µM
- TGI (OVCAR-8 ovarian): > 100 µM
- TGI (SK-MEL-28 melanoma): > 100 µM
- GI50 (HL-60(TB) leukemia): 61.7 µM and 12.8 µM
- TGI (HL-60(TB) leukemia): > 100 µM and 49.5 µM
- GI50 (LOX IMVI melanoma): > 100 µM and 41.8 µM
- TGI (LOX IMVI melanoma): > 100 µM
- GI50 (CCRF-CEM leukemia): > 100 µM and 49.1 µM
- TGI (CCRF-CEM leukemia): > 100 µM
- GI50 (SNB-75 CNS): 26 µM and > 7.5 µM
- TGI (SNB-75 CNS): > 100 µM
- GI50 (UO-31 renal): 42.6 µM and 10.5 µM
- TGI (UO-31 renal): > 100 µM and 30.3 µM
- TGI (SF-295 CNS): > 100 µM
- TGI (A498 renal): > 100 µM
- TGI (TK-10 renal): > 100 µM
- TGI (HT29 colon): > 75 µM
- GI50 (BT-549 breast): > 100 µM and 31.7 µM
- TGI (BT-549 breast): > 100 µM
- GI50 (MOLT-4 leukemia): 66 µM and 9.83 µM
- TGI (MOLT-4 leukemia): > 100 µM
- GI50 (KM12 colon): > 100 µM and 24.5 µM
- TGI (KM12 colon): > 100 µM

SMILES: O=C(O)CSC1=NCCN1
- TGI (HCT-15 colon): > 100 µM
- TGI (NCI/ADR-RES ovarian): > 100 µM
- TGI (NCI-H460 lung): > 100 µM
- TGI (HOP-92 NSCLC): > 100 µM
- TGI (SR leukemia): > 100 µM
- TGI (SK-MEL-2 melanoma): > 100 µM
- TGI (SF-539 CNS): > 100 µM
- TGI (OVCAR-3 ovarian): > 100 µM
- TGI (DU-145 prostate): > 100 µM
- TGI (MCF7 breast): > 100 µM
- TGI (PC-3 prostate): > 100 µM
- TGI (U251 CNS): > 100 µM
- TGI (786-0 renal): > 100 µM
- TGI (COLO 205 colon): > 100 µM
- TGI (SN12C renal): > 100 µM
- TGI (SK-MEL-5 melanoma): > 100 µM
- TGI (SW-620 colon): > 100 µM
- TGI (MDA-N): > 100 µM
- TGI (OVCAR-5 ovarian): > 100 µM
- TGI (SNB-19 CNS): > 100 µM
- TGI (ACHN renal): > 100 µM
- TGI (MDA-MB-435): > 100 µM
- TGI (HCT-116 colon): > 100 µM
- TGI (T-47D breast): > 100 µM
- TGI (SF-268 CNS): > 100 µM
- TGI (M14 melanoma): > 100 µM
- TGI (OVCAR-4 ovarian): > 100 µM
- TGI (RXF 393 renal): > 100 µM
- TGI (A549 NSCLC): > 100 µM
- TGI (IGROV1 ovarian): > 100 µM
- TGI (K-562 leukemia): > 100 µM
- TGI (MDA-MB-231 breast): > 100 µM
- TGI (HS 578T breast): > 100 µM
- TGI (RPMI-8226 leukemia): > 100 µM
- TGI (EKVX NSCLC): > 100 µM
- TGI (MALME-3M melanoma): > 100 µM
- TGI (NCI-H23 lung): > 100 µM
- TGI (OVCAR-8 ovarian): > 100 µM
- TGI (HOP-62 NSCLC): > 100 µM
- TGI (SK-MEL-28 melanoma): > 100 µM
- TGI (LOX IMVI melanoma): > 100 µM
- TGI (CCRF-CEM leukemia): > 100 µM
- TGI (UACC-62 melanoma): > 100 µM
- TGI (CAKI-1 renal): > 100 µM
- TGI (SNB-75 CNS): > 100 µM
- TGI (UO-31 renal): > 100 µM
- TGI (SF-295 CNS): > 100 µM
- TGI (A498 renal): > 100 µM
- TGI (TK-10 renal): > 100 µM
- TGI (SK-OV-3 ovarian): > 100 µM
- TGI (HT29 colon): > 100 µM
- TGI (BT-549 breast): > 100 µM
- TGI (NCI-H522 lung): > 100 µM
- TGI (MOLT-4 leukemia): > 100 µM
- TGI (KM12 colon): > 100 µM
